Test results: PubChem BioAssay (NCI)
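Assay format: 96-well plates, 48-hour exposure. TGI is the concentration that stops growth completely.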

Tests used:
Assay in all cases: growth of human tumour cells (NCI), 48 h
K-562 leukemia = tested on: K-562 leukemia
CCRF-CEM leukemia = tested on: CCRF-CEM leukemia
NCI/ADR-RES ovarian = tested on: NCI/ADR-RES ovarian
HCT-116 colon = tested on: HCT-116 colon
A549 NSCLC = tested on: A549 NSCLC
M14 melanoma = tested on: M14 melanoma
RXF 393 renal = tested on: RXF 393 renal
PC-3 prostate = tested on: PC-3 prostate
NCI-H23 lung = tested on: NCI-H23 lung
SNB-75 CNS = tested on: SNB-75 CNS
COLO 205 colon = tested on: COLO 205 colon
MDA-MB-231 breast = tested on: MDA-MB-231 breast
SNB-19 CNS = tested on: SNB-19 CNS
HT29 colon = tested on: HT29 colon
OVCAR-5 ovarian = tested on: OVCAR-5 ovarian
SR leukemia = tested on: SR leukemia

Structure (SMILES)	TGI (K-562 leukemia) [µM]	TGI (CCRF-CEM leukemia) [µM]	TGI (NCI/ADR-RES ovarian) [µM]	TGI (HCT-116 colon) [µM]	TGI (A549 NSCLC) [µM]	TGI (M14 melanoma) [µM]	TGI (RXF 393 renal) [µM]	TGI (PC-3 prostate) [µM]	TGI (NCI-H23 lung) [µM]	TGI (SNB-75 CNS) [µM]	TGI (COLO 205 colon) [µM]	TGI (MDA-MB-231 breast) [µM]	TGI (SNB-19 CNS) [µM]	TGI (HT29 colon) [µM]	TGI (OVCAR-5 ovarian) [µM]	TGI (SR leukemia) [µM]
CCS(=O)(=O)CCn1cnc2c1c(=O)n(C)c(=O)n2C	> 100	> 100	> 100	> 100	> 100	> 100	> 100	> 100	> 100	> 100	> 100	> 100	> 100	> 100	> 100	–
C=CC[C@@H]1C(=O)[C@@]2(O[Si](C(C)C)(C(C)C)C(C)C)CC[C@@H]1C[C@H]2NC(=O)OCC(Cl)(Cl)Cl	> 100	> 100	> 100	> 100	> 100	> 100	–	> 100	> 100	> 100	> 100	–	> 100	> 100	> 100	> 100
Cc1c(C)c2c(c(N)c1C#N)C(=O)N(CCN1CCNCC1)C2=O	> 100	> 100	> 100	52.2	> 100	> 100	70.6	> 100	–	77	78.7	> 100	> 100	–	81.1	95
O=C(c1cccc(C(=O)c2ccc3c4c(cccc24)C(=O)N(c2ccccc2)C3=O)c1)c1ccc2c3c(cccc13)C(=O)N(c1ccccc1)C2=O	> 100	–	> 100	> 100	> 100	> 100	> 100	> 100	> 100	> 100	> 100	> 100	> 100	> 100	> 100	–
CC1(C)CC(=O)c2c(nc(SSc3nc4c(c(-c5ccccc5)c3C#N)C(=O)CC(C)(C)C4)c(C#N)c2-c2ccccc2)C1	> 10	> 10	> 10	> 10	> 10	> 10	> 10	> 10	> 10	> 10	> 10	–	> 10	> 10	> 10	–
COc1cc(O)c2c(=O)cc(C3(O)C=CC(=O)C=C3)oc2c1	11.1	–	18.9	–	–	2.37	17.7	1.37	2.46	3.06	0.906	0.789	–	–	–	0.126
Cc1ccc(S(=O)(=O)NC(=O)Nc2ccc(S(N)(=O)=O)cc2S(N)(=O)=O)cc1	> 100	> 100	> 100	> 100	> 100	> 100	> 100	> 100	> 100	> 100	> 100	> 100	> 100	> 100	> 100	–
COc1c(O)c2c(=O)cc(OC)c3c4c(OC)cc(=O)c5c(O)c(OC)c6c(c(c1C(C(C)=O)C6C(C)O)c23)c54 (stereo not given)	–	1.16	1.58	3.06	3.06	–	–	0.971	1.33	1.42	–	1.88	0.413	0.267	1.28	1.93
C=C(Cl)C(=C)CCC(Cl)C(C)C (stereo not given)	> 100	> 100	> 100	> 100	> 100	> 100	> 100	> 100	> 100	–	> 100	> 100	> 100	> 100	> 100	> 100
CCOC(=O)c1cnc(-n2[nH]c3c(c2=O)CCCC3)[nH]c1=O	> 100	> 100	> 100	> 100	> 100	> 100	–	> 100	> 100	–	> 100	> 100	> 100	> 100	> 100	> 100
COc1ccc2c(c1)CCC1=CC3(CCC12C)SCCS3 (stereo not given)	> 10	> 10	> 10	–	> 10	> 10	–	> 10	> 10	> 10	> 10	> 10	> 10	> 10	–	> 10
Cc1ccc(/C=C/C(=O)c2cc(CN(C)C)c(O)c(CN(C)C)c2)cc1	43.9	> 100	79.1	39.7	58.5	39.1	55	36.8	> 100	88.9	22.5	27.2	–	33	> 100	62.7
COC(=O)C(Cc1nc2ccc(Cl)cc2[nH]c1=O)/C(=N/NC(N)=O)C(=O)Nc1ccc(Cl)cc1 (stereo not given)	> 100	> 100	–	> 100	> 100	> 100	> 100	–	> 100	> 100	> 100	–	> 100	> 100	> 100	> 100
NNc1[nH]c(=S)[nH]c1C(N)=O	–	> 100	> 100	> 100	> 100	> 100	> 100	> 100	–	> 100	> 100	> 100	–	> 100	> 100	–
Cc1cn(C2CC(N)C(C(=O)O)O2)c(=O)[nH]c1=O (stereo not given)	> 100	> 100	> 100	> 100	> 100	> 100	–	> 100	> 100	> 100	> 100	> 100	> 100	> 100	> 100	> 100
C/C=C/C(=O)N1C(=O)OC[C@@H]1c1ccccc1	56	44.8	44.4	38.1	36.3	36.6	37.2	37.5	32.8	27.1	39.1	39.8	41.4	33.7	31.7	–
